{
  "source": "patent US20110052556A1",
  "about": "“PHARMACEUTICAL COMPOSITION COMPRISING RACETAM AND CARNITINE AND PROCESS FOR ITS PREPARATION” (Biolab Sanus Farmaceutical Ltda, priority 2008, published 2011)",
  "test_system": "mitochondria isolated from liver of rat",
  "experiment": "Protection against mitochondrial swelling induced by statins",
  "assay_type": "biochemical",
  "method": "Mitochondria were isolated from adult rat liver (MFR) using the technique of differential centrifugation, according to […] and HOGEBOOM (1951), after a fast of 12 h. The liver, removed after death of the animal by cerebral concussion, was wash in a 250 mM saccharose solution containing buffer 10 mM HEPES pH 7.2 and 0.5 mM EGTA, and chopped with a scissors and homogenized in a Potter-Elvehjem homogeneizer. The material was centrifuged at 2500×g for 10 minutes. The resulting supernatant was centrifuged for 10 minutes at 8000×g. The supernatant was discarded and the sediment resuspended in 250 mM saccharose, 5 mM HEPES pH 7.2, 0.3 mM EGTA, and centrifuged as the previous step. […]\nMitochondrial swelling was calculated based on the decrease in tubidity of a mitochondrial suspension measured at 520 nm in a Hitachi spectrometer model U-3000 for a time period between 0 and 800 seconds.\nThis procedure of evaluation of mitochondria modification is based on fact that the mitochondria suspensions are turbid and scatter incident light. […] A spectrofotometric measurement of the absorbance reduction at 540 nm (Ca^2+-dependent NAD(P)^+-induced alterations in membrane permeability of the mitochondria. Integration of Mitochondrial Function, Ed. J. Lemasters, Plenum, New York, pp. 535-542) is made in a spectrophotometer connected to a potentiometric recorder. […]",
  "data": [
    {"smiles": "C[N+](C)(C)C[C@H](O)CC(=O)[O-]", "note": "[L-carnitine]", "values": [
      {"measurement": "smallest dose that presented some protective effect on mitochondrial swelling induced by statins", "setting": "swelling induced by Simvastatin, Pravastatin and Lovastatin", "value": 0.5, "unit": "µg/mL"}
    ]},
    {"smiles": "COC1=C(OC)C(=O)C(C/C=C(\\C)CC/C=C(\\C)CC/C=C(\\C)CC/C=C(\\C)CC/C=C(\\C)CC/C=C(\\C)CC/C=C(\\C)CC/C=C(\\C)CC/C=C(\\C)CCC=C(C)C)=C(C)C1=O", "note": "[coenzyme Q10, 2,3,dimethoxyl-5-methyl-6-decaprenil-1,4-benzoquinone]", "values": [
      {"measurement": "protection against mitochondria swelling induced by Simvastatin", "setting": "MFR 0.5 mg/ml, Piracar 0.25/0.65 μg/ml, CoQ 5 μg/ml, FIG. 5", "value": "effect of the addition of coenzyme Q10 in the protection against mitochondria swelling"}
    ]}
  ]
}
